Source: patent US20260001928A1 (CORTERIA PHARMACEUTICALS, priority 2022, published 2026)
*1 amine or outer side, *2 acyl side, *3 side chain or, on linkers, in order; H or OH if unused. Where a SMILES comes first, the peptide text is derived from it. Side-chain parts run from the residue outwards. [ ]: non-standard residue; d: D form. The star is where a group is joined. C16 diacid = O=C(O)CCCCCCCCCCCCCCC(=O)*; γGlu = O=C(O)[C@H](CCC(=O)[*:2])N[*:1]; NMeI = CC[C@H](C)[C@H](NC)C(=O)O; NMeV = CN[C@H](C(=O)O)C(C)C; Api = NC1(C(=O)O)CCNCC1; Hexanoyl = CCCCCC(=O)*; Aib = CC(C)(N)C(=O)O

Tests used:
CFR1R receptor = target: T1, CFR1R receptor (Homo sapiens, UniProt P34998); assay: Activity at anti-target CFR1R receptor, cAMP assay in CRF1R-overexpression CHO-K1 cells; format: cell-based; settings: 100% = Sauvagine at 100 nM; for EC50: cAMP
T1 construct: host or cells: CHO-K1 (clone 2)
T1 sequence (P34998 24-415): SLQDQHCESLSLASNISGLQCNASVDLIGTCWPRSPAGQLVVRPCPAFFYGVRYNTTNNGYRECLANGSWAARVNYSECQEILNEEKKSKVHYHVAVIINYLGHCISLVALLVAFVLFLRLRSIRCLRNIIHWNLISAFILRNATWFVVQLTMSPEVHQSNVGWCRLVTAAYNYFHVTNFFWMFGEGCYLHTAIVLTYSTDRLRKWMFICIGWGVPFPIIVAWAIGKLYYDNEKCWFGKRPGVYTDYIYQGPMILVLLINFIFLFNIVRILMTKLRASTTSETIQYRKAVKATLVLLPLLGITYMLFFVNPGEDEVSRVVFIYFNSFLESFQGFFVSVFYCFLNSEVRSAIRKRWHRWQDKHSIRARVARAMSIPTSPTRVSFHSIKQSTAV
How it was run: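 Signal is normalised to 100 nM Sauvagine, taken as 100% activation, in clone 2 cells plated at a final 4000 cells/well from frozen stocks.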

human CRF2a receptor = target: T2, human CRF2a receptor (Homo sapiens, UniProt Q13324); assay: Activity at human CRF2a receptor, cAMP functional assay in TeloHEAC cells; format: cell-based; settings: TeloHEAC cells stably expressing human CRF2a receptor, relative to urocortin 2 (100 nM = 100%)
T2 construct: expressed in transfected cells; host or cells: TeloHEAC cells
T2 sequence (Q13324 1-411): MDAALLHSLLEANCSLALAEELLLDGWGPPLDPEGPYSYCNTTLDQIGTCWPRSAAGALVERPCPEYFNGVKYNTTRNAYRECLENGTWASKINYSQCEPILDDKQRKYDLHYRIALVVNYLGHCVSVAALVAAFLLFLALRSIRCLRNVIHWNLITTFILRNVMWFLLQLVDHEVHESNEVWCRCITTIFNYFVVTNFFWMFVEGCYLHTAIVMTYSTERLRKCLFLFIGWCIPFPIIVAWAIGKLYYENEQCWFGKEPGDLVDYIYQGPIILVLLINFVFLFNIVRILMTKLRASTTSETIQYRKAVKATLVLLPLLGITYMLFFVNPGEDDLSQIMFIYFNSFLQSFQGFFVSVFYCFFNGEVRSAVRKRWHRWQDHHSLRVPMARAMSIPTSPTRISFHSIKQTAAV
How it was run: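 TeloHEAC cells stably expressing human CRF2a (10000 cells/well, suspended in HBSS/20 mM HEPES with 2 mM IBMX) were exposed to compounds for 30 min at 37 °C. cAMP was read as the 665/620 nm fluorescence ratio after 1 h at room temperature. EC50 was derived relative to 100 nM urocortin 2, set as 100%.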

Emax (% I) (CFR1R receptor)	EC50 (CFR1R receptor) [pM]	EC50 (human CRF2a receptor) [pM]	SMILES
24	> 250000	520	CC[C@H](C)[C@H](NC)C(=O)N[C@H](C(=O)N[C@@H](CC(C)C)C(=O)N[C@@H](CO)C(=O)N[C@@H](CC(C)C)C(=O)N[C@@H](CC(=O)O)C(=O)N[C@@H](C(=O)N1CCC[C@H]1C(=O)N[C@H](C(=O)N[C@@H](CCCCN)C(=O)N[C@@H](CC(C)C)C(=O)N[C@@H](CCCCNC(=O)CC[C@H](NC(=O)CCCCCCCCCCCCCCC(=O)O)C(=O)O)C(=O)N[C@@H](CCCCN)C(=O)N[C@H](C(=O)N[C@@H](CC(C)C)C(=O)N[C@@H](CC(C)C)C(=O)N[C@@H](CCC(=O)O)C(=O)N[C@@H](CCC(N)=O)C(=O)N[C@@H](CCC(=O)O)C(=O)N[C@@H](CCCCN)C(=O)N[C@@H](CCC(N)=O)C(=O)N[C@@H](CCCCN)C(=O)N[C@@H](C)C(=O)N[C@@H](CCC(N)=O)C(=O)N[C@@H](CCCNC(=N)N)C(=O)N[C@@H](CCC(=O)O)C(=O)N[C@@H](CCC(N)=O)C(=O)N[C@@H](C)C(=O)N[C@@H](CCC(=O)O)C(=O)N[C@H](C(=O)N[C@@H](CC(N)=O)C(=O)NC1(C(=O)N[C@@H](CCC(N)=O)C(=O)N[C@H](C(=O)N[C@@H](CC(C)C)C(=O)N[C@@H](C)C(=O)N[C@@H](CCC(N)=O)C(=O)N[C@H](C(N)=O)C(C)C)[C@@H](C)CC)CCNCC1)[C@@H](C)O)[C@@H](C)CC)[C@@H](C)CC)C(C)C)C(C)C [compound 154] (H-[NMeI]VLSLD[dV]PIKLK([γGlu-C16 diacid])KILLEQEKQKAQREQAETN[Api]QILAQV-NH2)
26	> 250000	510	CC[C@H](C)[C@H](NC)C(=O)N[C@H](C(=O)N[C@@H](CC(C)C)C(=O)N[C@@H](CO)C(=O)N[C@@H](CC(C)C)C(=O)N[C@@H](CC(=O)O)C(=O)N[C@@H](C(=O)N1CCC[C@H]1C(=O)N[C@H](C(=O)N[C@@H](CCCCN)C(=O)N[C@@H](CC(C)C)C(=O)N[C@@H](CCCCNC(=O)CC[C@H](NC(=O)CCCCCCCCCCCCCCC(=O)O)C(=O)O)C(=O)N[C@@H](CCCCN)C(=O)N[C@H](C(=O)N[C@@H](CC(C)C)C(=O)N[C@@H](CC(C)C)C(=O)N[C@@H](CCC(=O)O)C(=O)N[C@@H](CCC(N)=O)C(=O)N[C@@H](CCC(=O)O)C(=O)N[C@@H](CCCCN)C(=O)N[C@@H](CCC(N)=O)C(=O)N[C@@H](CCCCN)C(=O)NC(C)(C)C(=O)N[C@@H](CCC(N)=O)C(=O)N[C@@H](CCCNC(=N)N)C(=O)N[C@@H](CCC(=O)O)C(=O)N[C@@H](CCC(N)=O)C(=O)N[C@@H](C)C(=O)N[C@@H](CCC(=O)O)C(=O)N[C@H](C(=O)N[C@@H](CC(N)=O)C(=O)NC1(C(=O)N[C@@H](CCC(N)=O)C(=O)N[C@H](C(=O)N[C@@H](CC(C)C)C(=O)N[C@@H](C)C(=O)N[C@@H](CCC(N)=O)C(=O)N[C@H](C(N)=O)C(C)C)[C@@H](C)CC)CCNCC1)[C@@H](C)O)[C@@H](C)CC)[C@@H](C)CC)C(C)C)C(C)C [compound 155] (H-[NMeI]VLSLD[dV]PIKLK([γGlu-C16 diacid])KILLEQEKQK[Aib]QREQAETN[Api]QILAQV-NH2)
8	> 250000	290	CCCCCC(=O)N[C@H](C(=O)N[C@@H](CC(C)C)C(=O)N[C@@H](CO)C(=O)N[C@@H](CC(C)C)C(=O)N[C@@H](CC(=O)O)C(=O)N[C@@H](C(=O)N1CCC[C@H]1C(=O)N[C@H](C(=O)N[C@@H](CCCCN)C(=O)N[C@@H](CC(C)C)C(=O)N[C@@H](CCCCNC(=O)CC[C@H](NC(=O)CCCCCCCCCCCCCCC(=O)O)C(=O)O)C(=O)N[C@@H](CCCCN)C(=O)N[C@H](C(=O)N[C@@H](CC(C)C)C(=O)N[C@@H](CC(C)C)C(=O)N[C@@H](CCC(=O)O)C(=O)N[C@@H](CCC(N)=O)C(=O)N[C@@H](CCC(=O)O)C(=O)N[C@@H](CCCCN)C(=O)N[C@@H](CCC(N)=O)C(=O)N[C@@H](CCCCN)C(=O)N[C@@H](CCCCN)C(=O)N[C@@H](CCC(N)=O)C(=O)N[C@@H](CCCNC(=N)N)C(=O)N[C@@H](CCC(=O)O)C(=O)N[C@@H](CCC(N)=O)C(=O)N[C@@H](C)C(=O)N[C@@H](CCC(=O)O)C(=O)N[C@H](C(=O)N[C@@H](CC(N)=O)C(=O)NC(C)(C)C(=O)N[C@@H](CCC(N)=O)C(=O)N[C@H](C(=O)N[C@@H](CC(C)C)C(=O)N[C@@H](C)C(=O)N[C@@H](CCC(N)=O)C(=O)N[C@H](C(N)=O)C(C)C)[C@@H](C)CC)[C@@H](C)O)[C@@H](C)CC)[C@@H](C)CC)C(C)C)C(C)C [compound 156] (Hexanoyl-VLSLD[dV]PIKLK([γGlu-C16 diacid])KILLEQEKQKKQREQAETN[Aib]QILAQV-NH2)
30	> 250000	320	CCCCCC(=O)N[C@H](C(=O)N[C@@H](CC(C)C)C(=O)N[C@@H](CO)C(=O)N[C@@H](CC(C)C)C(=O)N[C@@H](CC(=O)O)C(=O)N[C@@H](C(=O)N1CCC[C@H]1C(=O)N[C@H](C(=O)N[C@@H](CCCCN)C(=O)N[C@@H](CC(C)C)C(=O)N[C@@H](CCCCNC(=O)CC[C@H](NC(=O)CCCCCCCCCCCCCCC(=O)O)C(=O)O)C(=O)N[C@@H](CCCCN)C(=O)N[C@H](C(=O)N[C@@H](CC(C)C)C(=O)N[C@@H](CC(C)C)C(=O)N[C@@H](CCC(=O)O)C(=O)N[C@@H](CCC(N)=O)C(=O)N[C@@H](CCC(=O)O)C(=O)N[C@@H](CCCCN)C(=O)N[C@@H](CCC(N)=O)C(=O)N[C@@H](CCCCN)C(=O)N[C@@H](CCCCN)C(=O)N[C@@H](CCC(N)=O)C(=O)N[C@@H](CCCNC(=N)N)C(=O)N[C@@H](CCC(=O)O)C(=O)N[C@@H](CCC(N)=O)C(=O)N[C@@H](C)C(=O)N[C@@H](CCC(=O)O)C(=O)N[C@H](C(=O)N[C@@H](CC(N)=O)C(=O)NC1(C(=O)N[C@@H](CCC(N)=O)C(=O)N[C@H](C(=O)N[C@@H](CC(C)C)C(=O)N[C@@H](C)C(=O)N[C@@H](CCC(N)=O)C(=O)N[C@H](C(N)=O)C(C)C)[C@@H](C)CC)CCNCC1)[C@@H](C)O)[C@@H](C)CC)[C@@H](C)CC)C(C)C)C(C)C [compound 157] (Hexanoyl-VLSLD[dV]PIKLK([γGlu-C16 diacid])KILLEQEKQKKQREQAETN[Api]QILAQV-NH2)
4	> 250000	2970	CC[C@H](C)[C@H](NC(=O)[C@H](CCC(N)=O)NC(=O)C(C)(C)NC(=O)[C@H](CC(N)=O)NC(=O)[C@@H](NC(=O)[C@H](CCC(=O)O)NC(=O)[C@H](C)NC(=O)[C@H](CCC(N)=O)NC(=O)[C@H](CCC(=O)O)NC(=O)[C@H](CCCNC(=N)N)NC(=O)[C@H](CCC(N)=O)NC(=O)[C@H](CCCCN)NC(=O)[C@H](CCCCN)NC(=O)[C@H](CCC(N)=O)NC(=O)[C@H](CCCCN)NC(=O)[C@H](CCC(=O)O)NC(=O)[C@H](CCC(N)=O)NC(=O)[C@H](CCC(=O)O)NC(=O)[C@H](CC(C)C)NC(=O)[C@H](CC(C)C)NC(=O)[C@@H](NC(=O)[C@H](CCCCN)NC(=O)[C@H](CCCCNC(=O)CC[C@H](NC(=O)CCCCCCCCCCCCCCC(=O)O)C(=O)O)NC(=O)[C@H](CC(C)C)NC(=O)[C@H](CCCCN)NC(=O)[C@@H](NC(=O)[C@@H]1CCCN1C(=O)[C@H](NC(=O)[C@H](CC(=O)O)NC(=O)[C@H](CC(C)C)NC(=O)[C@H](CO)NC(=O)[C@H](CC(C)C)NC(=O)[C@@H](NC)C(C)C)C(C)C)[C@@H](C)CC)[C@@H](C)CC)[C@@H](C)O)C(=O)N[C@@H](CC(C)C)C(=O)N[C@@H](C)C(=O)N[C@@H](CCC(N)=O)C(=O)N[C@H](C(N)=O)C(C)C [compound 159] (H-[NMeV]LSLD[dV]PIKLK([γGlu-C16 diacid])KILLEQEKQKKQREQAETN[Aib]QILAQV-NH2)
